A short description of data set [1]: MTT cytotoxicity assay of cells cultured on the hydrogels. It is filed as cell-based. The following applies: human, hydrogel 5 mg/ml peptide, 24 hours culture, read-out: cell viability. Here is the method:
To determine whether the functional amyloid hydrogel is non-toxic in nature, MTT (3-[4,5-dimethylthiazol-2-yl]-2,5 diphenyl tetrazolium bromide) assay was performed. The amyloid hydrogels were casted at a concentration of 5 mg/ml for each peptide and neuroblastoma, SH-SY5Y cells at a density of 10^4 were seeded and cultured on the hydrogels for 24 hours. The MTT reagent (0.5 mg/ml final concentration) was added to the cells after 24 hrs of culture and the cells were further incubated for 4 h. Finally, 100 μl of 50% N, N-dimethylformamide/20% sodium dodecyl sulfate solution was added, and the mixture was incubated overnight. The absorption was then measured at 560 nm with an automatic microtiter plate reader (Thermo Fisher Scientific, Waltham, MA, USA). FIG. 9 depicts the percentage of cell viability.

For data set [2], the system named is SH-SY5Y cells. Briefly: Differentiation of cells on RA encapsulated hydrogels. Type of data set: cell-based. The following applies: RA released from RA encapsulated hydrogels. As for the experimental part:
MDA-MB-231, breast cancer cell line was used for determining the efficacy of DOX release. To do so, MDA-MB-231 cells were grown on the DOX encapsulated hydrogels at a density of 2×10000 and cultured in complete DMEM media for 24 hrs. After 24 hrs, the cell morphology was imaged and the viability was then quantified using 3-(4,5-dimethylthiazol-2-yl)-2,5-diphenyl tetrazolium bromide (MTT) assay. FIG. 22A phase contrast images of MDA-MB-231 cells treated with DOX encapsulated hydrogels. […] For FACS analysis, MDAMB-231 cells were seeded on the hydrogel in the density 50,000 cells/well and allowed to grow for 24 hrs. Following the incubation, the cells were trypsinized and harvested in an eppendorf. The cell pellet was obtained by centrifugation and was resuspended in binding buffer. The percentage of apoptotic cells were measured by Annexin-PI staining method. 2 μl each of Annexin and PI was added to the resuspended cells and incubated for 5 mins before acquiring the results using FACS. […] After 48 hrs, the morphology of these cells was analyzed by phase contrast images (FIG. 23A) and the cell shape was quantified by circularity using Image J software (FIG. 23C).
The SH-SY5Y cells grown on hydrogel were immunostained with β-III tubulin (β-IIIT), a neuron specific marker to determine the efficacy of the released RA (FIG. 23B). […] The gene expression was analyzed by Real-time PCR technique.

For data set [3], the system named is MCF7 spheroids. Briefly: MTT cytotoxicity of chemotherapeutic drugs on spheroids versus 2D culture. Type of data set: cell-based. The conditions noted are these: 0-14 μM, 24 h. Here is the method: Cytotoxicity assays by MIT: MCF7 spheroids were cultured for five days in DMEM (Dulbecco's modified Eagle's medium) with 10% FBS, in a 5% CO2 incubator at 37° C. followed by treatment with different chemotherapeutics drugs (0-14 μM) for 24 h. For control, media containing buffer. After 24 h of incubation, 10 μl of MTT solution (5 mg/ml prepared in PBS) was added to each well and incubated for 4 h. Subsequently, 100 μl of SDS-DMF solution (50% DMF and 20% SDS, pH 4.75) were added and kept for overnight incubation. The absorption values at 560 nm and 690 nm (background absorbance) were determined using a SpectraMax M2e microplate reader (Molecular Devices, USA). The cell viability was plotted as percentage cell viability by considering 100% viability for the buffer control (FIG. 18 A).
Dense spheroids tended to show relative resistance to all these five chemotherapeutic drugs in the 3D-culture as compared to this resistance in 2D. […] These findings confirm that the formation of dense spheroids in 3D-culture plays a role in determining the sensitivity of the cell lines to these chemotherapeutic drugs. […] 3D, geometrical difference can have far-reaching impacts in terms of understanding physiological response.

Data set [4] has as its system MDA-MB-231 cells. The experiment in a line: Efficacy of DOX released from hydrogels (MTT, Annexin-PI FACS). Type of data set: cell-based. Here is the method: MDA-MB-231, breast cancer cell line was used for determining the efficacy of DOX release. To do so, MDA-MB-231 cells were grown on the DOX encapsulated hydrogels at a density of 2×10000 and cultured in complete DMEM media for 24 hrs. After 24 hrs, the cell morphology was imaged and the viability was then quantified using 3-(4,5-dimethylthiazol-2-yl)-2,5-diphenyl tetrazolium bromide (MTT) assay. FIG. 22A phase contrast images of MDA-MB-231 cells treated with DOX encapsulated hydrogels. […] For FACS analysis, MDAMB-231 cells were seeded on the hydrogel in the density 50,000 cells/well and allowed to grow for 24 hrs. Following the incubation, the cells were trypsinized and harvested in an eppendorf. The cell pellet was obtained by centrifugation and was resuspended in binding buffer. The percentage of apoptotic cells were measured by Annexin-PI staining method. 2 μl each of Annexin and PI was added to the resuspended cells and incubated for 5 mins before acquiring the results using FACS. […] To determine the efficacy of RA released from the hydrogel, SH-SY5Y neuroblastoma cells were seeded on hydrogel encapsulated with and without RA at a density of 1×10^4 and cultured in complete DMEM media. […] After 48 hrs, the morphology of these cells was analyzed by phase contrast images (FIG. 23A) and the cell shape was quantified by circularity using Image J software (FIG. 23C).

Data set [5] relates to MCF7 spheroids. The experiment in a line: Fluorescence live/dead study of drug effect on 2D versus 3D. Type of data set: cell-based. The conditions noted are these: 24 h. As for the experimental part:
Fluorescence study was also performed to observe the effect of drug on 2D versus 3D. Here, after maturation of spheroids i.e., 5 days of culture on gel 4, different dose of paclitaxel (2-10 μM) was added for 24 h. To assess the effect of drug, cell viability was observed by staining through calcein AM and ethidium homodimer-1. Images were captured after incubation with dyes for 1 h. […] On the other hand, at the concentration of 4 μM, 70% of the cells for 2D are dead for the drug paclitaxel (FIG. 18 B).

Data set [6] has as its system STZ-induced diabetic rat model. The experiment in a line: Insulin delivery from hydrogels in diabetic rats. As for the experimental part:
The functional amyloid hydrogel encapsulated with insulin (5 mg/ml) was administered subcutaneously to the diabetic rat model. Blood samples were collected from the tail veins of rats prior to drug administration and at different time intervals after dosing. Diabetes model rats were fasted for 12 h prior to and remained fasted during the experiment, but were allowed water ad libitum. The blood glucose level was checked biochemically at regular interval. The insulin released from the hydrogel in vivo was also monitored. To do that, blood samples were centrifuged (10,000 rpm, 4° C. for 15 min) and subsequently quantified using an appropriate insulin ELISA kit and during various time intervals.

Where a SMILES comes first, the peptide text is derived from it. The star is where a group is joined. Fmoc = O=C(OCC1c2ccccc2-c2ccccc21)*

Consider `CC[C@H](C)[C@H](NC(=O)[C@H](CCC(=O)O)NC(=O)[C@H](CCSC)NC(=O)[C@H](CC(C)C)NC(=O)[C@H](CCCCN)NC(=O)OCC1c2ccccc2-c2ccccc21)C(=O)O` [FA1, KLMEI] (Fmoc-KLMEI-OH; N-terminus and C-terminus assumed), for which the viability at 24 h, 5000 µg/mL in data set [1] is > 80%.
`CC1=C(/C=C/C(C)=C/C=C/C(C)=C/C(=O)O)C(C)(C)CCC1` [RA, trans-retinoic acid]: in data set [2], the differentiation of cells result was “induced differentiation of SH-SY5Y cells towards neuronal lineage”.
With `CC(C)C[C@H](NC(=O)[C@@H](NC(=O)[C@@H](NC(=O)[C@H](C)NC(=O)OCC1c2ccccc2-c2ccccc21)C(C)C)C(C)C)C(=O)N[C@@H](CO)C(=O)O` [FA3, AVVLS] (Fmoc-AVVLS-OH; N-terminus and C-terminus assumed), the viability at 24 h, 5000 µg/mL in data set [1] was > 80%.
As to `O=c1[nH]cc(F)c(=O)[nH]1` [5FU], in data set [3], the “death in 3D” value was “more death in 3D as compared to other drugs”.
For `COc1cccc2c1C(=O)c1c(O)c3c(c(O)c1C2=O)C[C@@](O)(C(=O)CO)C[C@@H]3O[C@H]1C[C@H](N)[C@H](O)[C@H](C)O1` [DOX, doxorubicin], in data set [4] (DOX encapsulated in the hydrogels, 24 hrs), the “change in cell viability (FACS, Annexin-PI)” value was “decrease in cell viability”. The cancer cell death in data set [4] (DOX released from DOX encapsulated hydrogels) is listed as ~70%.
Turning to `CC(=O)O[C@H]1C(=O)[C@@]2(C)[C@H]([C@H](OC(=O)c3ccccc3)[C@]3(O)C[C@H](OC(=O)[C@H](O)[C@@H](NC(=O)c4ccccc4)c4ccccc4)C(C)=C1C3(C)C)[C@]1(OC(C)=O)CO[C@@H]1C[C@@H]2O` [paclitaxel], the “cells dead in 2D” value in data set [5] (4 μM, calcein AM / ethidium homodimer-1) was 70%. The “resistance 3D versus 2D” value in data set [5] (2-10 μM, spheroids 5 days on gel 4) is 3D are more resistant than 2D.
The compound insulin yielded a blood sugar level in data set [6] (insulin encapsulated in the hydrogels, subcutaneously injected) of 100 to 120 mg/dL. Also, in data set [6] (only insulin control), the “time blood glucose level maintained after administration” value was ≤ 6 h and the “time serum insulin level maintained after administration” value is ≤ 6 h.
In the case of `CC[C@H](C)[C@H](NC(=O)[C@H](CC(=O)O)NC(=O)[C@H](CC(C)C)NC(=O)[C@H](CC(C)C)NC(=O)[C@H](CCCCN)NC(=O)OCC1c2ccccc2-c2ccccc21)C(=O)O` [FA2, KLLDI] (Fmoc-KLLDI-OH; N-terminus and C-terminus assumed), in data set [1], the viability at 24 h, 5000 µg/mL was > 80%.

The values above are taken from patent US12318503B2, “Functional amyloid hydrogels and applications thereof” (Indian Institute of Technology Bombay, priority 2019, dated 2025).
